Measurements reported in US6441195B1, “Substituted sulphonylamino(thio) carbonyl compounds” (Bayer Aktiengesellschaft, priority 1995, dated 2002).

How the values were obtained:
Type in all cases: in vivo
Solanum = test: Pre-emergence test/Greenhouse, Solanum; conditions: after three weeks
Protocol: (§1) To produce a suitable preparation of the active compound, 1 part by weight of active compound is mixed with the stated amount of solvent, the stated amount of emulsifier is added and the concentrate is diluted with water to the desired concentration.
(§2) Seeds of the test plants are sown in normal soil. After about 24 hours, the soil is watered with the preparation of active compound. Advantageously, the amount of water per unit area is kept constant. The active compound concentration in the preparation is not important, only the active compound appliation rate per unit area matters.
(§3) After three weeks, the degree of damage to the plants is rated in % damage in comparison to the development of the untreated control.
(§4) 0%=no action (like untreated control)

Sorghum = test: Pre-emergence test/Greenhouse, Sorghum; conditions: after three weeks
Protocol: as §1, §2, §3, §4

Lolium = test: Pre-emergence test/Greenhouse, Lolium; conditions: after three weeks
Protocol: as §1, §2, §3, §4

weeds = test: Pre-emergence test (greenhouse), activity against weeds; conditions: in words
Protocol: Solvent: 5 parts by weight of acetone
Emulsifier: 1 part by weight of alkylaryl polyglycol ether
as §1, §2, §3, §4

Matricaria = test: Pre-emergence test/Greenhouse, Matricaria; conditions: after three weeks
Protocol: as §1, §2, §3, §4

Maize = test: Pre-emergence test/Greenhouse, Maize; conditions: in vivo
Protocol: as §1, §2, §3, §4

Poa = test: Pre-emergence test/Greenhouse, Poa; conditions: after three weeks
Protocol: as §1, §2, §3, §4

Ambrosia = test: Pre-emergence test/Greenhouse, Ambrosia; conditions: after three weeks
Protocol: as §1, §2, §3, §4

Row | Structure (SMILES) | degree of damage to the plants (% damage vs untreated control), Solanum (Solanum; 60 g of ai./ha) | degree of damage to the plants (% damage vs untreated control), Sorghum (Sorghum; 60 g of ai./ha) | degree of damage to the plants (% damage vs untreated control), Lolium (Lolium; 60 g of ai./ha) | activity against weeds (weeds) | degree of damage to the plants (% damage vs untreated control), Matricaria (Matricaria; 60 g of ai./ha) | degree of damage to the plants (% damage vs untreated control), Maize (Maize) | degree of damage to the plants (% damage vs untreated control), Solanum (Solanum; 125 g of ai./ha) | degree of damage to the plants (% damage vs untreated control), Sorghum (Sorghum; 125 g of ai./ha) | degree of damage to the plants (% damage vs untreated control), Lolium (Lolium; 125 g of ai./ha) | degree of damage to the plants (% damage vs untreated control), Matricaria (Matricaria; 125 g of ai./ha) | degree of damage to the plants (% damage vs untreated control), Poa (Poa; 125 g of ai./ha) | degree of damage to the plants (% damage vs untreated control), Ambrosia (Ambrosia; 125 g of ai./ha) | degree of damage to the plants (% damage vs untreated control), Poa (Poa; 60 g of ai./ha) | degree of damage to the plants (% damage vs untreated control), Ambrosia (Ambrosia; 60 g of ai./ha)
1 | CCCc1nn(C(=O)NS(=O)(=O)c2c(C)csc2C(=O)OCC)c(=O)n1C [Example 67] | 100% | 90% | 100% | very strong activity against weeds | 100% | 0% |  |  |  |  |  |  |  | 
2 | CCOc1nn(C(=O)NS(=O)(=O)c2c(C)csc2C(=O)OC(C)C)c(=O)n1C1CC1 [Example 85] |  |  |  | very strong activity against weeds |  | 60% | 100% | 95% | 95% | 100% |  |  |  | 
3 | CCCc1nn(C(=O)NS(=O)(=O)c2c(C)csc2C(=O)OC(C)C)c(=O)n1C [Example 108] |  |  |  | very strong activity against weeds |  | 5% | 90% | 95% | 90% | 95% |  |  |  | 
4 | CCOC(=O)c1scc(C)c1S(=O)(=O)NC(=O)n1nc(CC)n(C)c1=O [Example 66] |  |  |  | very strong activity against weeds |  | 0% | 100% | 100% | 100% | 100% |  |  |  | 
5 | CCc1nn(C(=O)NS(=O)(=O)c2c(C)csc2C(=O)OC(C)C)c(=O)n1C [Example 77] | 90% | 90% | 95% | very strong activity against weeds | 100% | 0% |  |  |  |  |  |  |  | 
6 | CCCOc1nn(C(=O)NS(=O)(=O)c2c(C)csc2C(=O)OCC)c(=O)n1C [Example 58] |  |  |  | very strong activity against weeds |  | 20% | 95% |  | 80% | 100% | 95% |  |  | 
7 | CCCOC(=O)c1scc(C)c1S(=O)(=O)NC(=O)n1nc(OCC)n(C)c1=O [Example 80] |  |  |  | very strong activity against weeds |  | 0% | 95% | 90% | 95% | 100% |  |  |  | 
8 | CCSc1nn(C(=O)NS(=O)(=O)c2c(C)csc2C(=O)OC(C)C)c(=O)n1C [Example 81] | 100% | 95% | 100% | very strong activity against weeds | 100% |  |  |  |  |  |  |  |  | 
9 | CCCOC(=O)c1scc(C)c1S(=O)(=O)NC(=O)n1nc(OC)n(C)c1=O [Example 89] |  |  |  | very strong activity against weeds |  | 0% | 100% | 90% | 100% | 100% |  |  |  | 
10 | CCOC(=O)c1scc(C)c1S(=O)(=O)NC(=O)c1noc(C)n1 [Example 72] |  |  |  | very strong activity against weeds |  | 10% | 100% |  | 90% | 100% | 70% | 95% |  | 
11 | CCOC(=O)c1scc(C)c1S(=O)(=O)NC(=O)n1nc(OC(C)C)n(C2CC2)c1=O [Example 70] | 100% |  | 90% | very strong activity against weeds | 100% | 10% |  |  |  |  |  |  | 90% | 90%
12 | CCOC(=O)c1scc(C)c1S(=O)(=O)NC(=O)n1nc(OC(C)C)n(C)c1=O [Example 59] |  |  |  | very strong activity against weeds |  | 0% | 95% |  | 100% | 100% | 70% | 95% |  | 
13 | COC(=O)c1scc(C)c1S(=O)(=O)NC(=O)n1nc(OC(C)C)n(C2CC2)c1=O [Example 53] |  |  |  | very strong activity against weeds |  | 0% | 95% |  | 95% | 95% | 95% | 95% |  | 
14 | COC(=O)c1cccc(C)c1S(=O)(=O)NC(=O)n1nc(SC)n(C2CC2)c1=O [Example 158] |  |  |  | very strong activity against weeds |  |  |  |  |  |  |  |  |  | 
